{"source": "patent US4325946A", "about": "“Anthracycline glycosides, their preparation, use and compositions thereof” (Farmitalia Carlo Erba S.p.A., priority 1979, dated 1982)", "key": {"P-388 ascitic leukemia": {"system": "P-388 ascitic leukemia", "assay": "Activity on ascitic P-388 leukemia in mice", "assay_type": "in vivo", "details": "for Toxic Deaths: macroscopic autoptic findings", "method": "(§1) The new compounds according to the invention were tested in HeLa cells in vitro (time of exposure to the drugs: 24 hours) and on P-388 ascitic leukemia in mice in comparison with daunorubicin (daunomycin) and doxorubicin (adriamycin).\nActivity on Ascitic P-388 Leukemia in Mice\n^(a) Mice were treated i.p. on day 1 after tumor cell inoculation.\n^(b) Median survival time of treated mice/median survival time of\n^(c) Evaluated on the basis of macroscopic autoptic findings.\n^(d) Longtime survival."}, "HeLa cells": {"system": "HeLa cells", "assay": "Effect on HeLa cells cloning efficiency in vitro", "assay_type": "cell-based", "details": "HeLa cells exposed 24 hours, then plated, colonies evaluated 5 days later; for IC50: Homo sapiens, read-out: ID50 (the source's name)", "method": "as §1\nEffect on HeLa Cells Cloning Efficiency In Vitro^(a)\n^(a) HeLa cells were exposed to the test compounds for 24 hours, then\nplated. The number of colonies was evaluated 5 days later."}}, "note": "Structures can show the parent of a compound that is named as a salt."}
{"molecule": "4'-C-methyl-daunorubicin [I-A]", "values": [{"measurement": "T/C (median survival time of treated mice/control mice × 100)", "setting": "P-388 ascitic leukemia; 10 mg/Kg i.p. on day 1", "result": 150, "unit": "%"}, {"measurement": "Toxic Deaths", "setting": "P-388 ascitic leukemia; 10 mg/Kg i.p. on day 1", "result": "0/10"}, {"measurement": "T/C (median survival time of treated mice/control mice × 100)", "setting": "P-388 ascitic leukemia; 20 mg/Kg i.p. on day 1", "result": 155, "unit": "%"}, {"measurement": "Toxic Deaths", "setting": "P-388 ascitic leukemia; 20 mg/Kg i.p. on day 1", "result": "0/10"}, {"measurement": "ID50", "setting": "HeLa cells", "result": 35, "unit": "ng/mL"}]}
{"molecule": "4'-epi-4'-C-methyl-daunorubicin [I-C]", "values": [{"measurement": "T/C (median survival time of treated mice/control mice × 100)", "setting": "P-388 ascitic leukemia; 0.29 mg/Kg i.p. on day 1", "result": 140, "unit": "%"}, {"measurement": "Toxic Deaths", "setting": "P-388 ascitic leukemia; 0.29 mg/Kg i.p. on day 1", "result": "0/10"}, {"measurement": "T/C (median survival time of treated mice/control mice × 100)", "setting": "P-388 ascitic leukemia; 0.44 mg/Kg i.p. on day 1", "result": 163, "unit": "%"}, {"measurement": "Toxic Deaths", "setting": "P-388 ascitic leukemia; 0.44 mg/Kg i.p. on day 1", "result": "0/10"}, {"measurement": "T/C (median survival time of treated mice/control mice × 100)", "setting": "P-388 ascitic leukemia; 0.66 mg/Kg i.p. on day 1", "result": 158, "unit": "%"}, {"measurement": "Toxic Deaths", "setting": "P-388 ascitic leukemia; 0.66 mg/Kg i.p. on day 1", "result": "1/20"}, {"measurement": "ID50", "setting": "HeLa cells", "result": 2.8, "unit": "ng/mL"}]}
{"molecule": "4'-epi-4'-C-methyl-doxorubicin [I-D]", "values": [{"measurement": "T/C (median survival time of treated mice/control mice × 100)", "setting": "P-388 ascitic leukemia; 1 mg/Kg i.p. on day 1", "result": 150, "unit": "%"}, {"measurement": "Toxic Deaths", "setting": "P-388 ascitic leukemia; 1 mg/Kg i.p. on day 1", "result": "0/10"}, {"measurement": "T/C (median survival time of treated mice/control mice × 100)", "setting": "P-388 ascitic leukemia; 2 mg/Kg i.p. on day 1", "result": 156, "unit": "%"}, {"measurement": "Toxic Deaths", "setting": "P-388 ascitic leukemia; 2 mg/Kg i.p. on day 1", "result": "0/10"}, {"measurement": "ID50", "setting": "HeLa cells", "result": 0.62, "unit": "ng/mL"}]}
{"molecule": "COc1cccc2c1C(=O)c1c(O)c3c(c(O)c1C2=O)C[C@@](O)(C(C)=O)C[C@@H]3O[C@H]1C[C@H](N)[C@H](O)[C@H](C)O1", "note": "[Daunorubicin . HCl, Daunorubicin, reference compound]", "values": [{"measurement": "T/C (median survival time of treated mice/control mice × 100)", "setting": "P-388 ascitic leukemia; 2.9 mg/Kg i.p. on day 1", "result": 175, "unit": "%"}, {"measurement": "Toxic Deaths", "setting": "P-388 ascitic leukemia; 2.9 mg/Kg i.p. on day 1", "result": "0/40"}, {"measurement": "T/C (median survival time of treated mice/control mice × 100)", "setting": "P-388 ascitic leukemia; 4.4 mg/Kg i.p. on day 1", "result": 180, "unit": "%"}, {"measurement": "Toxic Deaths", "setting": "P-388 ascitic leukemia; 4.4 mg/Kg i.p. on day 1", "result": "3/39"}, {"measurement": "IC50", "setting": "HeLa cells", "result": 9, "unit": "ng/mL"}]}
{"molecule": "COc1cccc2c1C(=O)c1c(O)c3c(c(O)c1C2=O)C[C@@](O)(C(=O)CO)C[C@@H]3O[C@H]1C[C@H](N)[C@H](O)[C@H](C)O1", "note": "[Doxorubicin . HCl, Doxorubicin, reference compound]", "values": [{"measurement": "LTS (longtime survival)", "setting": "P-388 ascitic leukemia; 6.6 mg/Kg i.p. on day 1", "result": "2/30"}, {"measurement": "T/C (median survival time of treated mice/control mice × 100)", "setting": "P-388 ascitic leukemia; 6.6 mg/Kg i.p. on day 1", "result": 193, "unit": "%"}, {"measurement": "Toxic Deaths", "setting": "P-388 ascitic leukemia; 6.6 mg/Kg i.p. on day 1", "result": "0/30"}, {"measurement": "LTS (longtime survival)", "setting": "P-388 ascitic leukemia; 10 mg/Kg i.p. on day 1", "result": "5/28"}, {"measurement": "T/C (median survival time of treated mice/control mice × 100)", "setting": "P-388 ascitic leukemia; 10 mg/Kg i.p. on day 1", "result": 227, "unit": "%"}, {"measurement": "Toxic Deaths", "setting": "P-388 ascitic leukemia; 10 mg/Kg i.p. on day 1", "result": "1/28"}, {"measurement": "IC50", "setting": "HeLa cells", "result": 8.4, "unit": "ng/mL"}]}
{"molecule": "COc1cccc2c1C(=O)c1c(O)c3c(c(O)c1C2=O)CC(O)(C(=O)CO)CC3OC1CC(N)C(C)(O)C(C)O1.Cl", "note": "(stereo not shown) [I-B, 4'-C-methyl-doxorubicin]", "values": [{"measurement": "T/C (median survival time of treated mice/control mice × 100)", "setting": "P-388 ascitic leukemia; 6 mg/Kg i.p. on day 1", "result": 186, "unit": "%"}, {"measurement": "Toxic Deaths", "setting": "P-388 ascitic leukemia; 6 mg/Kg i.p. on day 1", "result": "0/10"}, {"measurement": "T/C (median survival time of treated mice/control mice × 100)", "setting": "P-388 ascitic leukemia; 7.7 mg/Kg i.p. on day 1", "result": 172, "unit": "%"}, {"measurement": "Toxic Deaths", "setting": "P-388 ascitic leukemia; 7.7 mg/Kg i.p. on day 1", "result": "0/10"}, {"measurement": "LTS (longtime survival)", "setting": "P-388 ascitic leukemia; 10 mg/Kg i.p. on day 1", "result": "3/20"}, {"measurement": "T/C (median survival time of treated mice/control mice × 100)", "setting": "P-388 ascitic leukemia; 10 mg/Kg i.p. on day 1", "result": 233, "unit": "%"}, {"measurement": "Toxic Deaths", "setting": "P-388 ascitic leukemia; 10 mg/Kg i.p. on day 1", "result": "2/20"}, {"measurement": "ID50", "setting": "HeLa cells", "result": 18, "unit": "ng/mL"}]}
